Assay results published in BigSolDB 2.1.

O=C(O)c1ccccc1Nc1cccc(C(F)(F)F)c1
solubility (mole fraction)
Settings	in DMSO	in ethanol	in ethylene glycol	in isopropanol	in methanol	in n-butanol	in propylene glycol	in sec-butanol	in transcutol	in water
298.2 K	0.226	0.0681	0.00767	0.0962	0.0439	0.119	0.0126	0.121	0.193	5.83e-07
303.2 K	0.241	0.0747	0.00856	0.105	0.048	0.13	0.0139	0.133	0.211	8.01e-07
308.2 K	0.256	0.0857	0.00975	0.116	0.0531	0.142	0.0153	0.144	0.229	1.02e-06
313.2 K	0.27	0.098	0.0107	0.128	0.0577	0.157	0.0167	0.16	0.251	1.28e-06
318.2 K	0.286	0.112	0.012	0.144	0.0629	0.177	0.0181	0.179	0.278	1.6e-06

Settings	solubility (mole fraction)
in PEG-400, 298.2 K	0.0337
in PEG-400, 303.2 K	0.04
in PEG-400, 308.2 K	0.0469
in PEG-400, 313.2 K	0.054
in PEG-400, 318.2 K	0.0616
